Data from article PMC12662848 (Cancer Chemotherapy and Pharmacology, 2025).
Where two headings read alike, the source gives them in different places.

Assays:
[1] = test system: AR−/lo LAPC9-CRPC; parameters: method as in PMID 30190514; details: single agent; cited from earlier work
[2] = Venetoclax plasma PK in combination with enzalutamide (LC–MS/MS, non-compartmental); type: in vivo, human; details: for half-life: read-out: D1 t½ (converted); for AUC(0-inf): read-out: D1 AUC0-inf; for Tmax: read-out: D1 Tmax
Description: A volume of 50 μL of the standard, QC, or sample plasma was pipetted into a microfuge tube and 10 μL of internal standard (IS; 500 ng/mL ^2H7-venetoclax) was added to each. Next, 200 μL of acetonitrile was added followed by vortexing for 30 s. Samples were centrifuged at 17,200 × g at room temperature for 10 min. Supernatants were transferred to autosampler vials, followed by injection of 5 μL into the LC–MS/MS system. The LC system consisted of an Exion autosampler with binary pump (Sciex, Framingham, MA, USA), Synergi Polar-RP C18 (4 µm, 2.1 × 50 mm) column kept at 30 °C. The autosampler temperature was also kept at 10 °C. Mobile phase solvent A consisted of 0.1% formic acid in water and mobile phase solvent B consisted of 0.1% formic acid in acetonitrile, mixed at 60% B. A. flow rate of 0.4 mL/min between 0–3 min and 1 mL/min from 3–5 min. Retention time of venetoclax was 1.7 min. MS detection was carried out using an ABI SCIEX (Concord, ON, Canada) 4500 tandem mass spectrometer with electrospray ionization in positive multiple reaction monitoring (MRM) mode, monitoring m/z transitions: 868.40 > 836.3 for venetoclax and 875.4 > 643.3 for venetoclax IS. QC based accuracies (N = 6, each of 3 days) were 100.9–106.2%. The intra- and inter-assay precisions were < 10.6% and < 2.4%.

[3] = test system: CLL; details: cited from earlier work
[4] = cited from earlier work
[5] = Total (N = 10), venetoclax 400–800 mg with enzalutamide 160 mg/d, geometric mean (geometric SD)
[6] = Total (N = 10), venetoclax 400–800 mg with enzalutamide 160 mg/d, geometric mean (geometric SD), listed as Venetoclax
[7] = male, human, plasma, oral, 400 mg
[8] = male, human, plasma, oral, 600 mg
[9] = male, human, plasma, oral, 800 mg
[10] = venetoclax 400 mg (N = 3) with enzalutamide 160 mg/d, plasma, geometric mean (geometric SD)
[11] = venetoclax 600 mg (N = 3) with enzalutamide 160 mg/d, plasma, geometric mean (geometric SD)
[12] = venetoclax 800 mg (N = 4) with enzalutamide 160 mg/d, plasma, geometric mean (geometric SD)

Structure (SMILES): CC1(C)CCC(CN2CCN(c3ccc(C(=O)NS(=O)(=O)c4ccc(NCC5CCOCC5)c([N+](=O)[O-])c4)c(Oc4cnc5[nH]ccc5c4)c3)CC2)=C(c2ccc(Cl)cc2)C1 [venetoclax]
- Growth of AR−/lo LAPC9-CRPC [1]: greatly inhibited
- D1 Cl/F [2, 5]: approximately 42 L/h
- D1 Cmax/Dose [2, 5]: 1.54 (1.54) µg/L/mg
- D1 Tmax [2, 5]: 6.0 (1.3) h
- D15 Cmin [2, 5]: 188 (2.17) µg/L
- D1 Cl/F [2, 6]: 42.1 (1.76) L/h
- D1 t½ [2, 6]: 8.9 (1.6) h
- Ratio D29/D1 (day 29 AUC0–24 over day 1 AUC0-inf) ([2]; Total, venetoclax 400–800 mg with enzalutamide 160 mg/d, geometric mean (geometric SD)): 0.77 (2.90)
- Variability of the ratio of day 29 AUC0–24 over day 1 AUC0-inf ([2]; corresponding to geometric SD 2.90): 190 %CV
- AUC(0-t) ([2]; human, plasma, oral, 800 mg, venetoclax 800 mg with enzalutamide 160 mg/d, plasma, N = 1 on D29, read-out: D29 AUC0-24): 8870 ng·h/mL
- Cmax ([2]; human, plasma, oral, 800 mg, venetoclax 800 mg with enzalutamide 160 mg/d, plasma, N = 1 on D29, read-out: D29 Cmax): 1000 ng/mL
- Increase in venetoclax apparent clearance ([2]; in combination with enzalutamide, versus previously reported values): 2–threefold
- clearance ([2]; male, human, plasma, oral): ~700 mL/min
- AUC(0-t) ([2]; male, human, plasma, oral, 400 mg, venetoclax 400 mg (N = 3) with enzalutamide 160 mg/d, plasma, geometric mean (geometric SD), read-out: D1 AUC0-last): 8020 ng·h/mL
- Cmax ([2]; male, human, plasma, oral, 400 mg, venetoclax 400 mg (N = 3) with enzalutamide 160 mg/d, plasma, geometric mean (geometric SD), read-out: D1 Cmax): 658 ng/mL
- half-life ([2]; male, human, plasma, oral, 400 mg, venetoclax 400 mg (N = 3) with enzalutamide 160 mg/d, plasma, geometric mean (geometric SD)): 11 h
- AUC(0-t) ([2]; male, human, plasma, oral, 400 mg, venetoclax 400 mg (N = 3) with enzalutamide 160 mg/d, plasma, geometric mean (geometric SD), read-out: D29 AUC0-24): 10500 ng·h/mL
- Cmax ([2]; male, human, plasma, oral, 400 mg, venetoclax 400 mg (N = 3) with enzalutamide 160 mg/d, plasma, geometric mean (geometric SD), read-out: D29 Cmax): 968 ng/mL
- AUC(0-inf) [2, 7]: 11100 ng·h/mL
- Tmax [2, 7]: 5.2 h
- AUC(0-t) ([2]; male, human, plasma, oral, 600 mg, venetoclax 600 mg (N = 3) with enzalutamide 160 mg/d, plasma, geometric mean (geometric SD), read-out: D1 AUC0-last): 12200 ng·h/mL
- Cmax ([2]; male, human, plasma, oral, 600 mg, venetoclax 600 mg (N = 3) with enzalutamide 160 mg/d, plasma, geometric mean (geometric SD), read-out: D1 Cmax): 1170 ng/mL
- half-life ([2]; male, human, plasma, oral, 600 mg, venetoclax 600 mg (N = 3) with enzalutamide 160 mg/d, plasma, geometric mean (geometric SD)): 6.6 h
- AUC(0-t) ([2]; male, human, plasma, oral, 600 mg, venetoclax 600 mg (N = 3) with enzalutamide 160 mg/d, plasma, geometric mean (geometric SD), read-out: D29 AUC0-24): 9110 ng·h/mL
- Cmax ([2]; male, human, plasma, oral, 600 mg, venetoclax 600 mg (N = 3) with enzalutamide 160 mg/d, plasma, geometric mean (geometric SD), read-out: D29 Cmax): 554 ng/mL
- AUC(0-inf) [2, 8]: 14600 ng·h/mL
- Tmax [2, 8]: 5.6 h
- AUC(0-t) ([2]; male, human, plasma, oral, 800 mg, venetoclax 800 mg (N = 4) with enzalutamide 160 mg/d, plasma, geometric mean (geometric SD), read-out: D1 AUC0-last): 8760 ng·h/mL
- Cmax ([2]; male, human, plasma, oral, 800 mg, venetoclax 800 mg (N = 4) with enzalutamide 160 mg/d, plasma, geometric mean (geometric SD), read-out: D1 Cmax): 979 ng/mL
- half-life ([2]; male, human, plasma, oral, 800 mg, venetoclax 800 mg (N = 4) with enzalutamide 160 mg/d, plasma, geometric mean (geometric SD)): 9.4 h
- AUC(0-inf) [2, 9]: 16600 ng·h/mL
- Tmax [2, 9]: 6.9 h
- Cmax ([2]; male, human, plasma, oral, Total (N = 10), venetoclax 400–800 mg with enzalutamide 160 mg/d, geometric mean (geometric SD), read-out: D1 Cmax): 917 ng/mL
- half-life ([2]; male, human, plasma, oral, Total (N = 10), venetoclax 400–800 mg with enzalutamide 160 mg/d, geometric mean (geometric SD)): ~9 h
- Cmax ([2]; male, human, plasma, oral, Total, venetoclax 400–800 mg with enzalutamide 160 mg/d, N = 3, 3, and 1 on D29, geometric mean (geometric SD), read-out: D29 Cmax): 765 ng/mL
- Ratio D29/D1 (day 29 AUC0–24 over day 1 AUC0-inf) ([2]; venetoclax 400 mg (N = 3) with enzalutamide 160 mg/d, geometric mean (geometric SD)): 0.95 (1.99)
- D1 Cl/F [2, 10]: 36.2 (1.27) L/h
- D1 Cmax/Dose [2, 10]: 1.64 (1.29) µg/L/mg
- D15 Cmin [2, 10]: 180 (1.72) µg/L
- Ratio D29/D1 (day 29 AUC0–24 over day 1 AUC0-inf) ([2]; venetoclax 600 mg (N = 3) with enzalutamide 160 mg/d, geometric mean (geometric SD)): 0.62 (5.32)
- D1 Cl/F [2, 11]: 41.2 (1.65) L/h
- D1 Cmax/Dose [2, 11]: 1.95 (1.79) µg/L/mg
- D15 Cmin [2, 11]: 214 (2.30) µg/L
- D1 Cl/F [2, 12]: 48.1 (2.31) L/h
- D1 Cmax/Dose [2, 12]: 1.22 (1.50) µg/L/mg
- D15 Cmin [2, 12]: 177 (2.89) µg/L
- Ratio D29/D1 (day 29 AUC0–24 over day 1 AUC0-inf) ([2]; venetoclax 800 mg with enzalutamide 160 mg/d, N = 1 on D29): 0.79
- Interpatient variability in Cmin ([2]; venetoclax, approximated from geometric SD (2.17–1)*100): ~117 %CV
- Intrapatient variability in Cmin ([2]; venetoclax, from day 8 through 57, across doses): 51 %CV
- Average steady-state venetoclax concentration required for a 50% tumor shrinkage [3]: 146 µg/L
- Average steady-state venetoclax concentration that decreases lymphocyte counts by 50% from baseline [3]: 8.63 µg/L
- Extension of PFS with a doubling of dose [3]: 6 months
- Absolute bioavailability [4]: ~ 5%
- Less than expected exposure when doubling dose ([4]; from 400 to 800 mg, population PK report): 12%
- Cmax ([4]; previous values, 800 mg dose): 3740 ng/mL
- Cmin ([4]; previous values, 800 mg dose): 1430 ng/mL
- Venetoclax half-life ([4]; previously reported in AML patients): 14 to 26 h
- Venetoclax clearance ([4]; previously reported): 413 L/day
